Common to all, as to format: cell-based
One assay concerns HT-29. Briefly: Cell growth inhibitory activity (Almar Blue), HT-29. To be noted: Homo sapiens; HT-29 cancer cells, cultured for 72 hours. How it is done:
(§1) The cell growth inhibitory activity of Compound 1 was evaluated using 4 types of cancer cells. The cancer cells used were human cancer cells (HT-29, A431, NCI-H460, […]). Compound 1 was dissolved in DMSO. One hundred […] of a suspension of cancer cells was charged in each 96 well micro plate (1.0 to 3.0×10^3 cells/well). After 24 hours, each of solutions of Compounds 1 to 6 was added in an amount of 2 ml to 100 ml of culture fluid to give final concentrations of […] and cultured for 72 hours. Thereafter, 20 ml of an Almar Blue reagent was added to each solution, followed by culturing for 6 hours.
The cell growth inhibitory activity of Compound 6 was evaluated using cancer cells (HT-29). The method for the evaluation was the same as the method by which Compound 1 was evaluated.

A further assay has as its system NCI-H460. Briefly: Cell growth inhibitory activity (Almar Blue), NCI-H460. The conditions noted are these: Homo sapiens; NCI-H460 cancer cells, cultured for 72 hours. Here is the method: as §1
Another assay has as its system U937. The assay can be described thus: Cell growth inhibitory activity (Almar Blue), U937. The conditions noted are these: Homo sapiens, U-937; U937 cancer cells, cultured for 72 hours. Here is the method:
as §1

Another assay has as its system PC-3. Briefly: Cell growth inhibitory activity (Almar Blue), PC-3. To be noted: Homo sapiens; PC-3 cancer cells, cultured for 72 hours.

Each structure is given as a SMILES string.

`C/C=C(/C)C1OC2C(C)=CC(C)(/C=C/C(=O)O)C3C(C)=CC1(C)C23C` (centres unmarked) [Compound 1]: the IC50 in the assay on HT-29 was 590 nM; with NCI-H460 it was 580 nM; in the assay on U937 it was 1100 nM; with PC-3, 820 nM.

Turning to `C=C1C(O)C(C)(/C=C/C(=O)O)C2C(C)=CC3(C)C(/C(C)=C\C)OC1C23C` (centres unmarked) [Compound 6], 310 nM corresponded to half-maximal inhibition with HT-29 (IC50).

The record behind these values is patent US9376415B2, “Tricyclic condensed heterocyclic compound, process of producing same, and use thereof” (NIPPON SUISAN KAISHA, LTD., priority 2009, dated 2016).
